In patent publication US6784201B2, “Benzothiepines having activity as inhibitors of ileal bile acid transport and taurocholate uptake” (G.D. Searle & Company, priority 1994, dated 2004):

Tests used:
[1] = tested on: H14 cells; assay: In vitro assay of uptake of [14C]-alanine; assay type: cell-based, hamster; conditions: Mesocricetus auratus; 10 μM
Procedure, shortened: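 H14 cells (BHK expressing human IBAT) incubated 2 h at 37 °C with compound and labelled alanine, in the same format as the 3 μM [14C]-taurocholate uptake assay, in DMEM with 0.2% fatty acid-free BSA. After cold PBS washes, cell-associated radioactivity measured by scintillation counting.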

[2] = target: ACAT; assay: Acyl-CoA; cholesterol acyl transferase (ACAT), hamster liver microsomes; assay type: biochemical; conditions: read-out: ACAT (liver) IC(50)
Protocol: (§1) Acyl-CoA; Cholesterol Acyl Transferase (ACAT)
(§2) Hamster liver and rat intestinal microsomes were prepared from tissue as described previously (Reference: (1980) J. Biol. Chem. 255, 9098) and used as a source of ACAT enzyme. The assay consisted of a 2.0 ml incubation containing 24 μM Oleoyl-CoA (0.05 μCi) in a 50 mM sodium phosphate, 2 mM DTT ph 7.4 buffer containing 0.25% BSA and 200 μg of microsomal protein. The assay was initiated by the addition of oleoyl-CoA. The reaction went for 5 min at 37° C. and was terminated by the addition of 8.0 ml of chloroform/methanol (2:1). […] The chloroform phase was taken to dryness and then spotted on a silica gel 60 TLC plate and developed in hexane/ethyl ether (9:1). The amount of cholesterol ester formed was determined by measuring the amount of radioactivity incorporated into the cholesterol oleate spot on the TLC plate with a Packard instaimager.

[3] = target: ACAT; assay: Acyl-CoA; cholesterol acyl transferase (ACAT), rat intestinal microsomes; assay type: biochemical; conditions: read-out: ACAT intestine IC(50)
Protocol: as §1, §2

[4] = tested on: Serum Cholesterol; assay: Determination of serum cholesterol (SER.CHOL, HDL-CHOL, TGI, VLDL+LDL), cholesterol-fed hamsters; assay type: in vivo, hamster; conditions: 0.2% Cpd. No. 25, mean (SEM)
Protocol: (§3) Determination of Serum Cholesterol (SER.CHOL, HDL-CHOL, TGI and VLDL+LDL)
(§4) Total serum cholesterol (SER.CHOL) was measured enzymatically using a commercial kit from Wako Fine Chemicals (Richmond, Va.); Cholesterol C11, Catalog No. 276-64909. HDL cholesterol (HDL-CHOL) was assayed using this same kit after precipitation of VLDL and LDL with Sigma Chemical Co. HDL Cholesterol reagent, Catalog No. 352-3 (dextran sulfate method). Total serum triglycerides (blanked) (TGI) were assayed enzymatically with Sigma Chemical Co. GPO-Trinder, Catalog No. 337-B. VLDL and LDL (VLDL+LDL) cholesterol concentrations were calculated as the difference between total and HDL cholesterol.

[5] = tested on: Hepatic Cholesterol; assay: Hepatic cholesterol concentration, cholesterol-fed hamsters; assay type: in vivo, hamster; conditions: 0.2% Cpd. No. 25, mean (SEM)
Protocol: (§5) Measurement of Hepatic Cholesterol Concentration (Hepatic CHOL)
(§6) Liver tissue was weighed and homogenized in chloroform:methanol (2:1). After homogenization and centrifugation the supernatant was separated and dried under nitrogen. The residue was dissolved in isopropanol and the cholesterol content was measured enzymatically, using a combination of cholesterol oxidase and peroxidase, as described by Allain, C. A., et al. (1974) Clin. Chem. 20, 470.

[6] = tested on: Hepatic HMG CoA-Reductase; assay: Hepatic HMG CoA-reductase activity, cholesterol-fed hamsters; assay type: in vivo, hamster; conditions: 0.2% Cpd. No. 25, mean (SEM)
Protocol: Measurement of Hepatic HMG CoA-Reductase Activity (HMG COA)
Hepatic microsomes were prepared by homogenizing liver samples in a phosphate/sucrose buffer, followed by centrifugal separation. The final pelleted material was resuspended in buffer and an aliquot was assayed for HMG CoA reductase activity by incubating for 60 minutes at 37° C. in the presence of ^14C-HMG-CoA (Dupont-NEN). The reaction was stopped by adding 6N HCl followed by centrifugation. An aliquot of the supernatant was separated, by thin-layer chromatography, and the spot corresponding to the enzyme product was scraped off the plate, extracted and radioactivity was determined by scintillation counting. (Reference: Akerlund, J. and Bjorkhem, I. (1990) J. Lipid Res. 31, 2159).

[7] = tested on: Fecal Bile Acid; assay: Fecal bile acid concentration (FBA), cholesterol-fed hamsters; assay type: in vivo, hamster; conditions: 0.2% Cpd. No. 25, mean (SEM)
Protocol: (§7) Measurement of Fecal Bile Acid Concentration (FBA)
(§8) Total fecal output from individually housed hamsters was collected for 24 or 48 hours, dried under a stream of nitrogen, pulverized and weighed. Approximately 0.1 gram was weighed out and extracted into an organic solvent (butanol/water). Following separation and drying, the residue was dissolved in methanol and the amount of bile acid present was measured enzymatically using the 3α-hydroxysteroid steroid dehydrogenase reaction with bile acids to reduce NAD. (Reference: Mashige, F., et al. (1981) Clin. Chem. 27, 1352).

[8] = Rat Alzet minipump model: body, liver and fecal weight; assay type: in vivo; conditions: 20 MPL/DAY, mean (SEM)
[9] = tested on: Serum Cholesterol; assay: Determination of serum cholesterol, rat Alzet minipump model; assay type: in vivo; conditions: 20 MPL/DAY, mean (SEM)
Protocol: as §3, §4

[10] = tested on: Hepatic Cholesterol; assay: Hepatic cholesterol concentration, rat Alzet minipump model; assay type: in vivo; conditions: 20 MPL/DAY, mean (SEM)
Protocol: as §5, §6

[11] = tested on: Hepatic Cholesterol 7-α-Hydroxylase; assay: Hepatic cholesterol 7-α-hydroxylase activity, rat Alzet minipump model; assay type: in vivo; conditions: 20 MPL/DAY, mean (SEM)
Protocol: Measurement of Hepatic Cholesterol 7-α-Hydroxylase Activity (7a-OHase)
Hepatic microsomes were prepared by homogenizing liver samples in a phosphate/sucrose buffer, followed by centrifugal separation. The final pelleted material was resuspended in buffer and an aliquot was assayed for cholesterol 7-α-hydroxylase activity by incubating for 5 minutes at 37° C. in the presence of NADPH. Following extraction into petroleum ether, the organic solvent was evaporated and the residue was dissolved in acetonitrile/methanol. The enzymatic product was separated by injecting an aliquot of the extract onto a C18 reversed phase HPLC column and quantitating the eluted material using UV detection at 240 nm. (Reference: Horton, J. D., et al. (1994) J. Clin. Invest. 93, 2084).

[12] = tested on: Fecal Bile Acid; assay: Fecal bile acid concentration (FBA), rat Alzet minipump model; assay type: in vivo; conditions: 20 MPL/DAY, mean (SEM)
Protocol: as §7, §8

- IC50 [2]: 8 µM
- IC50 [3]: 8 µM
- LIVER WEIGHT (G) [8]: 14.6 (0.4) G
- WEIGHT (G) day 1 [8]: 307 (3) G
- WEIGHT (G) day 8 [8]: 310 (4) *A, B G
Structure (SMILES): CCCC[C@]1(CC)CS(=O)(=O)c2cc(OC)ccc2[C@@H](c2ccccc2)[C@H]1O [Example 25, (3α,4β,5β) 3-Butyl-3-ethyl-4-hydroxy-8-methoxy-5-phenyl-2,3,4,5-tetrahydrobenzothiepine-1,1-dioxide]
- inhibition at 10 µM [1]: 4%
- HDL-CHOL (mg %) [4]: 76 (1) *A, B mg %
- SER.CHOL (mg %) [4]: 126 (2) mg %
- TGI (mg %) [4]: 175 (11) mg %
- VLDL + LDL ([4]; difference total minus HDL cholesterol): 50 (3)
- HEPATIC CHOL (mg/g) [5]: 1.9 (0.1) mg/g
- HMG COA (pm/mg/min.) [6]: 312.9 (37.5) pm/mg/min.
- FBA (mM/24 H/100 g) [7]: 11.9 (0.5) mM/24 H/100 g
- SER.CHOL (mg %) [9]: 84 (3) mg %
- HEPATIC CHOL (mg/g) [10]: 2.0 (0.03) mg/g
- 7a-OHase (pm/mg/min) [11]: 535.2 (35.7) *A, B pm/mg/min
- FBA (mM/24 H/100 g) [12]: 39.1 (4.5) *A, B mM/24 H/100 g
